Here are results for two compounds from US20090137667A1, “Pesticide Delivery System” (priority 2006, published 2009).

Where only a bound is given, the exact number is not on record here.

Data set [1] can be described thus: Particle size of aqueous dispersions by dynamic light scattering. In kind it is physicochemical. The note with it: Table 14, microblend with Pluronic P123:Soprophor BSU 1:1, insecticide 4.5 mg/ml, after 2 hours, Nanotrac 250. How it is done:
The suspensions were shaken for 40 h at room temperature followed by centrifugation for 10 min at 13,000 rpm. The concentration of Bifenthrin in the supernatants was determined by UV-spectroscopy. For this purpose, standard solutions containing from 0 to 0.58 mg/ml of Bifenthrin in ethanol were prepared using a stock solution of Bifenthrin in acetonitrile with concentration of 8.7 mg/ml. These solutions were used to obtain a calibration curve by measuring an absorbance at 260 nm using Perkin-Elmer Lambda 25 spectrophotometer. […]
Compositions of insecticides were prepared using melts of mixtures of nonionic block copolymer and ethoxylated surfactants. Specifically, tristyrylphenol etoxylate (Soprophor BSU, Rhodia) was used in combination with Pluronic P123 (PEO20-PPO69-PEO20). 250 mg of Pluronic P123 were mixed with 250 mg of Soprophor BSU, and 50 mg of fine powder of the insecticide, and were melted together for 1 hour. The composition of the copolymer/surfactant mixture was P123:Soprophor=1:1 by weight. The feeding copolymer/surfactant:insecticide ratio was 10:1. The melted compositions were cooled down to room temperature. […] 50 mg of the composition was rehydrated in 1 ml of water upon shaking for 1 hour. The total concentration of copolymer/surfactant components in the mixture was ca. 4.6%. The targeted content of insecticide in the microblend dispersion was 4.5 mg/ml.

Data set [2] is described as follows: Stability and appearance of aqueous dispersions on storage. It is filed as physicochemical. The note with it: Table 14, microblend with Pluronic P123:Soprophor BSU 1:1, storage at room temperature.
A short description of data set [3]: Soil mobility by soil thin layer chromatography (s-TLC). The note with it: Example 50, 14C-bifenthrin, 10% aqueous dispersions, water eluant. In kind it is physicochemical. The protocol: The evaluation of the soil mobility of the bifenthrin microblends according to the invention was performed using soil thin layer chromatography (s-TLC). Air-dried greenhouse topsoil, sieved to pass through with a 250 μm sieve was used to prepare s-TLC plates. Thirty mL of distilled water was added to 60 g of the sieved soil and the mixture was thoroughly grounded until a smooth, moderately fluid slurry was obtained. The soil slurry was quickly spread evenly across a clean grooved glass plate. Plates contained 9×1 cm channels cut to a depth of 2 mm, with the channels spaced 1 cm apart. Plates were allowed to dry at room temperature over 24 hours. A horizontal line was scribed 12.5 cm above the plate base through the soil layer before the soil dried completely. Bifenthrin microblends used in these experiments were prepared using a bifenthrin sample spiked with ^14C-radiolabeled bifenthrin to achieve reasonable sensitivity. Aqueous dispersions of microblends with concentrations of 10% were used in these experiments. Aliquots of each radiolabeled microblend were spotted 1.5 cm above the plate base. ^14C-labeled sulfentrazone and suspension of ^14C-labeled bifenthrin were used as controls. […]
The s-TLC were then scanned for 2 hours using a Packard InstantImager™ TLC plate scanner. Rf values were determined from the images obtained using the following equation (1): […]

The conditions of data set [4]: crude Bifenthrin; cited from earlier work.

In the case of `Cc1c(COC(=O)[C@@H]2[C@H](/C=C(\Cl)C(F)(F)F)C2(C)C)cccc1-c1ccccc1` (racemic) [Bifenthrin], in data set [1], the “Particle size (nm)” value was 14 nm. Also, in data set [2], the “Dispersion appearance in 24 hours” value was “clear”. Further, in data set [3], the Rf is listed as 0.00. Besides, the “n-octanol partition coefficient, logP” value in data set [4] is over 6.
`Cc1nn(-c2cc(NS(C)(=O)=O)c(Cl)cc2Cl)c(=O)n1C(F)F` [Sulfentrazone]: the Rf in data set [3] was found to be 1.0.
